# Test system: Mitochondria-located protein genes
# Assay: DNA chip mRNA expression in yeast, mitochondria-located protein genes (Table 2)
# Format: cell-based, Saccharomyces cerevisiae S288C
# Conditions: cells incubated two hours with the chemical substance
# Protocol: Yeast (Saccharomyces cerevisiae S288C (α SUC2mal mel gap2 CUP1)) were incubated at 25° C. on YPD medium (yeast extract 1%, polypepton 2%, glucose 2%). One of toxic chemical substances was added to the cells at logarithmic growth phase, and the cells were further incubated for two hours. Cells were cultured without any chemical substance in the same condition, and were used as control. Concentrations of the chemical substances were defined to inhibit the growth of the yeast but not lead to death.
# After completion of the incubation, the culture was centrifuged to collect the cells. To the cells, sodium acetate buffer (50 mM sodium acetate, 10 mM EDTA, 1% SDS) was added, and the mixture was shaken at 65° C. for five minutes, followed by returning to room temperature, and obtaining the supernatant, of which the procedures were repeated two times. To the supernatant, ½ amount of a solution of phenol/chloroform was added, and the mixture was centrifuged to give a supernatant, which was added with an equal amount of chloroform, and the mixture was centrifuged to give a supernatant. To the supernatant, an equal amount of isopropanol containing 0.3 M sodium acetate was added, and the mixture was allowed to stand at room temperature for 30 minutes, after which the mixture was centrifuged to give a sediment of the whole RNAs. Seventy % ethanol was added to the sediment, and the mixture was again centrifuged to give a sediment, which was then dried and dissolved in water. mRNA was isolated from the whole RNAs as followings. In view of the fact that a poly A chain is attached to the 3′ terminus of mRNA, a polynucleotide having a poly T structure which was immobilized on the surface of latex beads was used to trap the mRNA, and then the mRNA was washed and eluted with spine column (Oligotex-dT30<Super>mRNA Purification Kit, Takara). Reverse transcription of the mRNA was conducted with a reverse transcriptase (Super Script II Reverse Transcriptase; catalogue No. 18064-014, GibcoBRL) using fluorescence-labeled nucleotides to give cDNAs that were introduced with Cy3-dUTP or Cy5-dUTP during the reverse transcription.
# The labeled cDNAs were dissolved in TE buffer (10mM Tris-HCl/1 mM EDTA, pH8.0), and the solution was dropped on the DNA chip containing the whole genes of yeast (DNA Chip Research Inc. Japan) so that the cDNAs were hybridized on the DNA chip at 65° C. for over 12 hours. The fluoresces intensity of the DNA chip was read with a scanner, and the ratio relative to the fluorescence intensity resulting from the absence of chemical substance was estimated as the following, which is shown in Tables 1 to 9: […]
smiles,measurement,setting,value
"CCCCCCCCCCCCc1ccc(S(=O)(=O)[O-])cc1.[Na+] [(17), sodium dodecylbenzosulfonate]",The level of expressed mRNA in the presence of chemical substance/The level of expressed mRNA in the absence of chemical substance,yeast gene YJR121W,1.1
same,The level of expressed mRNA in the presence of chemical substance/The level of expressed mRNA in the absence of chemical substance,yeast gene YKL003C,1.0
same,The level of expressed mRNA in the presence of chemical substance/The level of expressed mRNA in the absence of chemical substance,yeast gene YKL016C,1.0
same,The level of expressed mRNA in the presence of chemical substance/The level of expressed mRNA in the absence of chemical substance,yeast gene YKL141W,0.9
same,The level of expressed mRNA in the presence of chemical substance/The level of expressed mRNA in the absence of chemical substance,yeast gene YKL142W,2.4
same,The level of expressed mRNA in the presence of chemical substance/The level of expressed mRNA in the absence of chemical substance,yeast gene YKL148C,0.8
same,The level of expressed mRNA in the presence of chemical substance/The level of expressed mRNA in the absence of chemical substance,yeast gene YKL170W,1.1
same,The level of expressed mRNA in the presence of chemical substance/The level of expressed mRNA in the absence of chemical substance,yeast gene YKL194C,1.1
same,The level of expressed mRNA in the presence of chemical substance/The level of expressed mRNA in the absence of chemical substance,yeast gene YKR066C,0.9
same,The level of expressed mRNA in the presence of chemical substance/The level of expressed mRNA in the absence of chemical substance,yeast gene YLL041C,1.1
same,The level of expressed mRNA in the presence of chemical substance/The level of expressed mRNA in the absence of chemical substance,yeast gene YLR038C,1.2
same,The level of expressed mRNA in the presence of chemical substance/The level of expressed mRNA in the absence of chemical substance,yeast gene YLR259C,0.8
same,The level of expressed mRNA in the presence of chemical substance/The level of expressed mRNA in the absence of chemical substance,yeast gene YLR295C,0.9
same,The level of expressed mRNA in the presence of chemical substance/The level of expressed mRNA in the absence of chemical substance,yeast gene YLR304C,0.5
same,The level of expressed mRNA in the presence of chemical substance/The level of expressed mRNA in the absence of chemical substance,yeast gene YLR348C,1.1
same,The level of expressed mRNA in the presence of chemical substance/The level of expressed mRNA in the absence of chemical substance,yeast gene YLR395C,1.2
same,The level of expressed mRNA in the presence of chemical substance/The level of expressed mRNA in the absence of chemical substance,yeast gene YML054C,1.1
same,The level of expressed mRNA in the presence of chemical substance/The level of expressed mRNA in the absence of chemical substance,yeast gene YML120C,1.0
same,The level of expressed mRNA in the presence of chemical substance/The level of expressed mRNA in the absence of chemical substance,yeast gene YML129C,1.3
same,The level of expressed mRNA in the presence of chemical substance/The level of expressed mRNA in the absence of chemical substance,yeast gene YMR023C,1.1
same,The level of expressed mRNA in the presence of chemical substance/The level of expressed mRNA in the absence of chemical substance,yeast gene YMR035W,2.2
same,The level of expressed mRNA in the presence of chemical substance/The level of expressed mRNA in the absence of chemical substance,yeast gene YMR083W,0.9
same,The level of expressed mRNA in the presence of chemical substance/The level of expressed mRNA in the absence of chemical substance,yeast gene YMR089C,0.9
same,The level of expressed mRNA in the presence of chemical substance/The level of expressed mRNA in the absence of chemical substance,yeast gene YMR152W,1.5
same,The level of expressed mRNA in the presence of chemical substance/The level of expressed mRNA in the absence of chemical substance,yeast gene YMR203W,0.8
same,The level of expressed mRNA in the presence of chemical substance/The level of expressed mRNA in the absence of chemical substance,yeast gene YMR267W,0.9
same,The level of expressed mRNA in the presence of chemical substance/The level of expressed mRNA in the absence of chemical substance,yeast gene YNL055C,1.2
same,The level of expressed mRNA in the presence of chemical substance/The level of expressed mRNA in the absence of chemical substance,yeast gene YNL071W,1.0
same,The level of expressed mRNA in the presence of chemical substance/The level of expressed mRNA in the absence of chemical substance,yeast gene YNL073W,0.8
same,The level of expressed mRNA in the presence of chemical substance/The level of expressed mRNA in the absence of chemical substance,yeast gene YNL104C,0.9
same,The level of expressed mRNA in the presence of chemical substance/The level of expressed mRNA in the absence of chemical substance,yeast gene YNL256W,0.6
same,The level of expressed mRNA in the presence of chemical substance/The level of expressed mRNA in the absence of chemical substance,yeast gene YOL096C,1.2
same,The level of expressed mRNA in the presence of chemical substance/The level of expressed mRNA in the absence of chemical substance,yeast gene YOR020C,1.4
same,The level of expressed mRNA in the presence of chemical substance/The level of expressed mRNA in the absence of chemical substance,yeast gene YOR037W,1.2
same,The level of expressed mRNA in the presence of chemical substance/The level of expressed mRNA in the absence of chemical substance,yeast gene YOR100C,0.9
same,The level of expressed mRNA in the presence of chemical substance/The level of expressed mRNA in the absence of chemical substance,yeast gene YOR130C,1.5
same,The level of expressed mRNA in the presence of chemical substance/The level of expressed mRNA in the absence of chemical substance,yeast gene YOR142W,0.9
same,The level of expressed mRNA in the presence of chemical substance/The level of expressed mRNA in the absence of chemical substance,yeast gene YOR150W,0.9
same,The level of expressed mRNA in the presence of chemical substance/The level of expressed mRNA in the absence of chemical substance,yeast gene YOR176W,1.2
same,The level of expressed mRNA in the presence of chemical substance/The level of expressed mRNA in the absence of chemical substance,yeast gene YOR187W,0.8
same,The level of expressed mRNA in the presence of chemical substance/The level of expressed mRNA in the absence of chemical substance,yeast gene YOR316C,0.8
same,The level of expressed mRNA in the presence of chemical substance/The level of expressed mRNA in the absence of chemical substance,yeast gene YPL040C,0.8
same,The level of expressed mRNA in the presence of chemical substance/The level of expressed mRNA in the absence of chemical substance,yeast gene YPL134C,1.3
same,The level of expressed mRNA in the presence of chemical substance/The level of expressed mRNA in the absence of chemical substance,yeast gene YPL135W,1.5
same,The level of expressed mRNA in the presence of chemical substance/The level of expressed mRNA in the absence of chemical substance,yeast gene YPL215W,1.0
same,The level of expressed mRNA in the presence of chemical substance/The level of expressed mRNA in the absence of chemical substance,yeast gene YPL262W,1.1
same,The level of expressed mRNA in the presence of chemical substance/The level of expressed mRNA in the absence of chemical substance,yeast gene YPR024W,1.1
same,The level of expressed mRNA in the presence of chemical substance/The level of expressed mRNA in the absence of chemical substance,yeast gene YPR037C,1.2
same,The level of expressed mRNA in the presence of chemical substance/The level of expressed mRNA in the absence of chemical substance,yeast gene YPR047W,1.0
same,The level of expressed mRNA in the presence of chemical substance/The level of expressed mRNA in the absence of chemical substance,yeast gene YPR134W,1.0
